# Test results: patent US11793208B2, “Antimicrobial treatment of animal carcasses and food products” (EVONIK OPERATIONS GMBH, priority 2017, dated 2023)
# Columns and labels:
# [1] = pH of tap water containing acids and alkaline modifiers, before and after contact with chicken breast; format: physicochemical; conditions: for pH after 1 hour: 1 hour at 4° C. with chicken breast; for pH initial: tap water 4° C., before addition of poultry
# Experimental: Organic acids were added to plastic containers containing 5.0 L of tap water at 4° C. The alkaline modifiers, NaOH, Na2CO3, Na2CO3.1.5H2O2, Na3PO4, were added to the solution in the plastic container in an amount sufficient to bring pH to about 7-9 depending upon the pKa of the organic acid. Then, 5 pieces of chicken breast weighing about 200 gram each were added to each container. The solution was then incubated for one hour at 4° C., with periodic stirring. The pH was measured immediately before the addition of the poultry and then after the 1 hour incubation at 4° C.
# [2] = tested on: Salmonella enterica ATCC 14028; assay: Salmonella suspension testing method; format: cell-based; conditions: for Average Log10 reduction: 60 min treatment, 5% organic load; for kill of Salmonella: organic acid with addition of percarbonate, relatively high pH
# Experimental: The effect of organic acids and alkaline modifiers on microbial viability was assayed using a Salmonella suspension testing method as described below. […] A 1:5 dilution of organism was prepared in Butterfield's buffer. This dilution was added in equal parts to sterile fetal bovine serum in order to produce a working inoculum containing a 50% organic load. […] Then, a 1 mL aliquot of working inoculum was added to the test solution and vortexed briefly to mix. A 1 mL aliquot was removed from the mixture at 1, 30, and 60 minutes following inoculation, and immediately added to a 9 mL volume of Letheen neutralizing broth. This broth was then vortex mixed, diluted serially into Butterfield's buffer, and the dilutions plated on 3[…] Aerobic Count Plates. The plates were incubated for 24-48 hours at 35° C., and then counted manually. Log 10 calculations were performed to obtain the Log 10 CFU/mL of the solutions at each time point.
# [3] = Concentration of PAA and H2O2 in the presence of alkaline modifiers; format: physicochemical; conditions: for effect of alkaline modifier on concentration of both PAA and hydrogen peroxide: PAA solution with the alkaline modifier, 1 hour at 4° C.; for PAA, ppm Initial / H2O2, ppm Initial: immediately after preparation; for H2O2, ppm in 1 hour / PAA, ppm in 1 hour: after 1 hour at 4° C.
# [4] = tested on: Aerobic Plate Count (APC); assay: Microbial load of rinses from treated poultry offal: Aerobic Plate Count; format: cell-based; conditions: 8-10 seconds
# Experimental: (§1) For offal treatments, mixtures of organic acids and peroxyacids were prepared by weighing the components and dissolving them in water to reach the desired concentration. Peracetic acid (PAA) solutions were prepared by diluting VigorOx® (PeroxyChem LLC) with tap water to obtain the target concentration.
# (§2) The pH of the aseptic compositions was adjusted using a 25% aqueous solution of NaOH, solid sodium carbonate, or sodium bicarbonate. The amount of active oxygen was confirmed by titration on an autotitrator and by using Chemetrics test kits K-7913F and K-5543.
# (§3) Fresh poultry livers and gizzards, and lamb livers and kidneys were purchased untreated and fresh (not frozen) from local suppliers. All offal was kept refrigerated before testing.
# (§4) Poultry offal was collected into a single large plastic bag. A gloved hand was used to remove either 6 whole, bi-lobed livers or 12 gizzards and place them in 350 mL of either water, an 840 ppm PAA solution, or an 840 ppm PAA solution that had been adjusted to a pH of 10.2 with sodium hydroxide and used within 5 minutes of pH adjustment. The samples were incubated in the solutions for 8-10 seconds. After treatment, a freshly gloved hand was used to remove 2 livers (or 4 gizzards) into a small plastic strainer. The treated samples were allowed to drain for 30 to 60 seconds to remove excess moisture. Each set of 2 livers (or 4 gizzards) was then placed into 100 mL peptone buffer and rinsed in the peptone for 30 seconds. A few milliliters of rinsate were removed by transfer pipette and kept on ice for dilution and plating. The plates were incubated for 24 to 48 hours at 35° C. and counted manually to determine the Aerobic Plate Count (APC) and the Enterobacteriaceae count (EBC). The color of the treated samples was noted by visual inspection.
# Enterobacteriaceae = assay: Microbial load of rinses from treated poultry offal: Enterobacteriaceae count; format: cell-based; conditions: 8-10 seconds
# Experimental: as §1, §2, §3, §4
# [5] = tested on: Aerobic Plate Count (APC); assay: Microbial reduction after PAA treatment of chicken livers: Aerobic Plate Count; format: cell-based; conditions: PAA 1000 ppm
# Experimental: (§5) Six chicken livers were added to 500 mL of peracetic acid solution, and incubated room temperature for 5, 15, or 30 seconds. Then the livers were removed and quickly added individually to 100 mL Buffered Peptone Water in a sterile cup, 1 liver per cup. Cups were manually shaken for 30 seconds and the liquid was sampled for plating. Sample rinses were serially diluted using Butterfield's buffer and plated on Aerobic Plate Count (APC) and Escherichia coli Coliform (ECC) plates. The plates were incubated for 24-48 hours at a temperature of 35° C., and then counted manually. Log10 calculations were performed to obtain the Log10 CFU/mL of the solutions at each time point.
# [6] = tested on: Escherichia coli Coliform (ECC); assay: Microbial reduction after PAA treatment of chicken livers: Escherichia coli Coliform plates; format: cell-based; conditions: PAA 1000 ppm
# Experimental: as §5
# [7] = tested on: Aerobic Plate Count (APC); assay: Microbial reduction after PAA treatment of lamb livers: Aerobic Plate Count; format: cell-based; conditions: PAA 100 ppm
# [8] = Citric 2,500 ppm, alkaline modifier Na2CO3•1.5H2O2
# [9] = Citric 5,000 ppm, alkaline modifier Na2CO3•1.5H2O2
# [10] = Glycolic 250 ppm, alkaline modifier Na2CO3
# [11] = Glycolic 250 ppm, alkaline modifier NaOH
# [12] = Glycolic 500 ppm, no alkaline modifier
# [13] = additive Na5P3O10 125 ppm, initial PAA 10.4 ppm
# [14] = additive Na5P3O10 125 ppm, initial PAA 30.1 ppm
# [15] = Gizzards, 840 ppm PAA adjusted to pH 10.2 with sodium hydroxide
# [16] = Livers, 840 ppm PAA adjusted to pH 10.2 with sodium hydroxide
# [17] = alkaline modifier Na2CO3, pH 8.5, treatment time 5 seconds
# [18] = alkaline modifier NaHCO3, pH 7.5, treatment time 15 seconds
# [19] = alkaline modifier NaHCO3, pH 7.5, treatment time 30 seconds
# [20] = alkaline modifier NaOH, pH 7.5, treatment time 5 seconds
# [21] = no alkaline modifier, pH 3.1, treatment time 5 seconds
# [22] = no alkaline modifier, pH 3.1, treatment time 15 seconds
compound,measurement,setting,value
"O=C(O)CC(O)(CC(=O)O)C(=O)O [Citric, citric acid]",pH after 1 hour,[1]; [8],7.5
same,pH initial,[1]; [8],7.5
same,pH after 1 hour,[1]; [9],8.5
same,pH initial,[1]; [9],8.5
same,Average Log10 reduction,"[2]; Citric 0.5%, alkaline modifier Na2CO3•1.5H2O2, pH 7.5",7.09
same,Average Log10 reduction,"[2]; Citric 0.5%, no alkaline modifier, pH 2.4",3.83
same,kill of Salmonella,[2],virtually complete kill
"O=C(O)CO [Glycolic, glycolic acid]",pH after 1 hour,[1]; [10],6.8
same,pH initial,[1]; [10],6.7
same,pH after 1 hour,[1]; [11],7.5
same,pH initial,[1]; [11],9.0
same,pH after 1 hour,[1]; [12],4.5
same,pH initial,[1]; [12],3.6
"O=P(O)(O)OP(=O)(O)OP(=O)(O)O [Na5P3O10, sodium tripolyphosphate, reference compound]",effect of alkaline modifier on concentration of both PAA and hydrogen peroxide,[3],relatively rapid decrease
same,"PAA, ppm Initial","[3]; additive Na5P3O10 125 ppm, higher PAA level",30.1 ppm
same,"H2O2, ppm in 1 hour",[3]; [13],1.4 ppm
same,"PAA, ppm in 1 hour",[3]; [13],4.0 ppm
same,"H2O2, ppm Initial",[3]; [13],6.5 ppm
same,"H2O2, ppm in 1 hour",[3]; [14],4.8 ppm
same,"PAA, ppm in 1 hour",[3]; [14],8.6 ppm
same,"H2O2, ppm Initial",[3]; [14],20.1 ppm
same,"PAA, ppm Initial","[3]; additive Na5P3O10 125 ppm, lower PAA level",10.4 ppm
"O=C([O-])O.[Na+] [NaHCO3, sodium bicarbonate]",effect of alkaline modifier on concentration of both PAA and hydrogen peroxide,[3],remained relatively stable
same,"H2O2, ppm in 1 hour",[3]; additive NaHCO3 125 ppm,6.3 ppm
same,"PAA, ppm in 1 hour",[3]; additive NaHCO3 125 ppm,8.5 ppm
same,"H2O2, ppm Initial",[3]; additive NaHCO3 125 ppm,6.5 ppm
same,"PAA, ppm Initial",[3]; additive NaHCO3 125 ppm,10.4 ppm
same,"H2O2, ppm in 1 hour",[3]; additive NaHCO3 250 ppm,18.9 ppm
same,"PAA, ppm in 1 hour",[3]; additive NaHCO3 250 ppm,29.6 ppm
same,"H2O2, ppm Initial",[3]; additive NaHCO3 250 ppm,19.9 ppm
same,"PAA, ppm Initial",[3]; additive NaHCO3 250 ppm,30.3 ppm
same,"H2O2, ppm in 1 hour",[3]; additive NaHCO3 275 ppm,11 ppm
same,"PAA, ppm in 1 hour",[3]; additive NaHCO3 275 ppm,23 ppm
same,"H2O2, ppm Initial",[3]; additive NaHCO3 275 ppm,11 ppm
same,"PAA, ppm Initial",[3]; additive NaHCO3 275 ppm,25 ppm
"[Na+].[OH-] [NaOH, sodium hydroxide, reference compound]",effect of alkaline modifier on concentration of both PAA and hydrogen peroxide,[3],relatively rapid decrease
same,"H2O2, ppm in 1 hour",[3]; additive NaOH 100 ppm,4 ppm
same,"PAA, ppm in 1 hour",[3]; additive NaOH 100 ppm,8 ppm
same,"H2O2, ppm Initial",[3]; additive NaOH 100 ppm,11 ppm
same,"PAA, ppm Initial",[3]; additive NaOH 100 ppm,25 ppm
"CC(=O)OO [PAA, Peracetic acid]","H2O2, ppm in 1 hour",[3]; no additive (0 ppm),11 ppm
same,"PAA, ppm in 1 hour",[3]; no additive (0 ppm),24 ppm
same,"H2O2, ppm Initial",[3]; no additive (0 ppm),11 ppm
same,"PAA, ppm Initial",[3]; no additive (0 ppm),25 ppm
same,Log APC,[4]; [15],0.85
same,Log APC,"[4]; Gizzards, 840 ppm PAA, pH 3.4",0.70
same,Log APC,[4]; [16],0.30
same,Log APC,"[4]; Livers, 840 ppm PAA, pH 3.4",0.00
same,Log EBC,Enterobacteriaceae; [15],0.00
same,Log EBC,"Enterobacteriaceae; Gizzards, 840 ppm PAA, pH 3.4",0.00
same,Log EBC,Enterobacteriaceae; [16],0.00
same,Log EBC,"Enterobacteriaceae; Livers, 840 ppm PAA, pH 3.4",0.00
same,APC log10 reduction,[5]; [17],1.1
same,APC log10 reduction,[5]; [18],1.1
same,APC log10 reduction,[5]; [19],1.7
same,APC log10 reduction,[5]; [20],1.1
same,APC log10 reduction,[5]; [21],0.9
same,APC log10 reduction,[5]; [22],1.2
same,ECC log10 reduction,[6]; [17],1.1
same,ECC log10 reduction,[6]; [18],3.1
same,ECC log10 reduction,[6]; [19],3.1
same,ECC log10 reduction,[6]; [20],0.8
same,ECC log10 reduction,[6]; [21],0.5
same,ECC log10 reduction,[6]; [22],1.1
same,APC log10 reduction,"[7]; additive Citric acid, 2%, pH 7.5 (sodium carbonate), treatment time 10 minutes",1.8
same,APC log10 reduction,"[7]; additive Lactic acid, 2%, pH 7.5 (sodium carbonate), treatment time 10 minutes",1.8
same,APC log10 reduction,"[7]; no additive, pH 4.1, treatment time 10 minutes",2.2
same,APC log10 reduction,"[7]; no additive, pH 7.5 (adjusted with sodium carbonate), treatment time 10 minutes",3.0
"CCC(=O)O [Propionic, propionic acid]",Average Log10 reduction,"[2]; Propionic 0.5%, alkaline modifier Na2CO3•1.5H2O2, pH 7.5",7.07
same,Average Log10 reduction,"[2]; Propionic 0.5%, no alkaline modifier, pH 3.1",2.15
same,kill of Salmonella,[2],virtually complete kill
